Measured values published in patent US4048334A, “Active derivatives of methylamino in therapeutic compositions and methods of use” (priority 1974, dated 1977).

Test system: reserpine-induced catatonia
Experiment: Inhibition of reserpine-induced catatonia
Format: in vivo, rat (male, OFA strain)
Procedure: 1. Inhibition of reserpine-induced catatonia
After sufficient doses of reserpine have been administered to the rat, a series of symptoms occur, more particularly ptosis, catatonia and a drop in central temperature. These symptoms are caused by the depletion of the intragranular reserve pool of boigenetic amines at the synaptic terminals.
An oral dose of the compound to be studied in aqueous solution was administered to batches of 10 male rats of the OFA strain weighing about 150 to 200 g. Thirty minutes later a dose of 5 mg/kg of reserpine was given by intraperitoneal route. Three hours after the injection of reserpine, the animals were suspended by the four paws to a horizontally stretched wire fixed at 15 cm from the ground. The catatonic animals were those which maintained the position so given for at least 30 seconds. […] The maximum score was therefore 10 per batch. An identical trial was undertaken with control animals which received reserpine but none of the compounds being studied.

With CCCC(N)(CCC)CCC [Compound 1] the “Inhibition of reserpine-induced catatonia” value (5 mg/kg oral, 30 min before reserpine 5 mg/kg i.p.) was 4 (100% inhibition of catatonia in comparison with the controls (namely a score of 0 per studied batch)) and the “activity (dose) compared with amantadine, reserpine-induced catatonia” value (versus amantadine) was “as active as amantadine but at a dose which is twenty times inferior to that of amantadine”.
